Measurements: patent publication EP0358766A1, “METHOD OF STERILIZING PLANT ANTHERS” (VSESOJUZNY NAUCHNO-ISSLEDOVATELSKY INST. SELSKOKHOZYAISTV. …, priority 1988, dated 1989)
Where two headings read alike, the source gives them in different places.

How the values were obtained:
diploidem Roggen Chulpan = assay: Field test of gametocidal activity, diploid rye Chulpan; type: in vivo; conditions: for Prozentsatz des Ansetzens von Samen bei freier Bestäubung: control = 100
[1] = tested on: Winterweizens Sorte Mironowskaya 808; assay: Field test of gametocidal activity (anther sterilisation), winter wheat Mironowskaya 808; type: in vivo, Weizen; conditions: for Prozentsatz des Ansetzens von Samen bei freier Bestäubung: control = 100; for pest or weed control at 1 %, 10000 g/ha: read-out: Prozentsatz der Sterilität %
[2] = tested on: Sommerweizens Sorte Moskowskaya 35; assay: Field test of gametocidal activity, spring wheat Moskowskaya 35; type: in vivo, Weizen; conditions: for Prozentsatz des Ansetzens von Samen bei freier Bestäubung: control = 100
[3] = tested on: diploidem Roggen Kharkovskaya 55; assay: Field test of gametocidal activity, diploid rye Kharkovskaya 55; type: in vivo; conditions: for Prozentsatz des Ansetzens von Samen bei freier Bestäubung: control = 100
Excerpt: (§1) Die gametozide Aktivität der erfindungsgemäßen Sterilisationsmittel war in Feldversuchen in verschiedenen bodenklimatischen Zonen mit Teilstücken von 10 m^2 Größe in dreibis viermaliger Wiederholung festgestellt. Jedes Sterilisationsmittel wurde mindenstens 5 Jahre lang geprüft.
(§2) Die Entwicklung der Perioden der Organogenese wird zytologisch überwacht. Die Behandlung von Pflanzen mit dem Sterilisationsmittel erfolgt am Anfang der fünften Periode der Organogenese nach Kupermann.
(§3) Mit dem Ährenschieben verwirklicht man die Isolierung von Hauptähren und anderen Stockwerken in Pergametbeuteln. Bei Weizen und Tritikale werden Einzelisolatoren benutzt. Bei Roggen schließt man je 1 Ähre von […] verschiedenen nebeneinander befindlichen Pflanzen unter einen gemeinsamen Isolator ein. Bei Hirse wird jede Rispe getrennt isoliert. Der Sterilitätsprozentsatz (X) für Weizen, Roggen, Tritikale und Hirse wird nach der Formel [formula] ermittelt.
(§4) Die Kornzahl in nicht isolierten Ähren von Kontrollpflanzen wird bedingt für 100 % Ansetzen bei freier Bestäubung angenommen.
(§5) Um zuverlässige Angaben zu erhalten, verwendet man 20 bis 25 Isolatoren je Wiederholung für Weizen und Tritikale, 10 bis 15 Isolatoren jeder Wiederholung für Roggen und Hirse.
Pflanzen von diploidem Roggen Kharkovskaya 55 werden in der V. Periode der Organogenese mit einer l%igen wäßrigen Emulsion von 1,1,3-Tribrompropan, 1,2,3-Tribrompropan, 1,2-Dibrompropan, 1,1,3-Tribrom-3-chlorpropan, 1,2--Dibrom-3-chlorpropan, 1,1,1,3-Tetrabromheptan, 1,1,3-Tribromheptan bzw. 1,2-Dibromheptan behandelt. Die Emulsion enthält 0,5 Masse% C12-C14-Kalziumalkylbenzolsulfonat und 0,01 Masse% Dimethylformamid als Adjuvans. Der Verbrauch an Präparat beträgt 6 kg/ha bei 600 1 Wasserdurchsatz. Die Prüfergebnisse sind in der Tabelle 13 angegeben. Die gleichen Ergebnisse sind bei der Behandlung von diploidem Roggen Kharkovskaya 55 in der VI. Periode der Organogenese erhalten.

[4] = tested on: Hirse Sorte Mironovskoye 94; assay: Field test of gametocidal activity, millet Mironovskoye 94; type: in vivo; conditions: for Prozentsatz des Ansetzens von Samen bei freier Bestäubung: control = 100
Excerpt: as §1, §2, §3, §4, §5
Pflanzen der Hirse Sorte Mironovskoye 94 werden in der V.Periode der Organogenese mit einer 1%igen wäßrigen Emulsion von 1,1,3-Tribrompropan, 1,2,3-Tribrompropan, 1,2-Dibrompropan, 1,2-Dibrom-3-chlorpropan, 1,3-Dibrompropan, 1,1,1,3-Tetrabromheptan, 1,1,3-Tribromheptan, 1,2-Dibromheptan behandelt. Die Emulsion enthält 0,5 Masse% C12-C14--Kalziumalkylbenzolaulfonat und 0,01 Masse% Dimethylsulfoxid als Adjuvans. Der Verbrauch an Präparat beträgt 6 kg/ha bei 600 1 Wasserdurchsatz. Die Prüfergebnisse sind in der Tabelle 15 angegeben. Die gleichen Ergebnisse sind bei der Behandlung der Hirse Sorte Mironovskoye 94 in der VI. Periode der Organogenese erhalten.

[5] = Chulpan, period V, 1% aqueous emulsion, 10 kg/ha
[6] = read-out: Prozentsatz der Sterilität
[7] = Mironowskaya 808, period V of organogenesis, 1% aqueous emulsion, 10 kg/ha
[8] = Moskowskaya 35, period V, 1% aqueous emulsion, 6 kg/ha in 600 l water
[9] = Kharkovskaya 55, period V, 1% aqueous emulsion, 6 kg/ha in 600 l water
[10] = Mironovskoye 94, period V, 1% aqueous emulsion, 6 kg/ha in 600 l water

SMILES	Kornzahl der Ähre bei freier Bestäubung (diploidem Roggen Chulpan; [5])	Kornzahl der Ähre im Isolator (diploidem Roggen Chulpan; [5])	Prozentsatz des Ansetzens von Samen bei freier Bestäubung (diploidem Roggen Chulpan; [5])	pest or weed control at 10000 g/ha (diploidem Roggen Chulpan; [6]) [%]	Kornzahl der Ähre bei freier Bestäubung [1, 7]	Kornzahl der Ähre im Isolator [1, 7]	Prozentsatz des Ansetzens von Samen bei freier Bestäubung [1, 7]	pest or weed control at 1 %, 10000 g/ha [1] [%]	Kornzahl der Ähre bei freier Bestäubung [2, 8]	Kornzahl der Ähre im Isolator [2, 8]	Prozentsatz des Ansetzens von Samen bei freier Bestäubung [2, 8]	pest or weed control at 6000 g/ha [2, 6] [%]	Kornzahl der Ähre bei freier Bestäubung [3, 9]	Kornzahl der Ähre im Isolator [3, 9]	Prozentsatz des Ansetzens von Samen bei freier Bestäubung [3, 9]	pest or weed control at 6000 g/ha [3, 6] [%]	Kornzahl der Rispe bei freier Bestäubung [4, 10]	Kornzahl der Rispe im Isolator [4, 10]	Prozentsatz des Ansetzens von Samen bei freier Bestäubung [4, 10]	pest or weed control at 6000 g/ha [4, 6] [%]	also measured
CCCCC(Br)CC(Br)(Br)Br (centres unmarked) [Beispiel 9, 1,1,1,3-Tetrabromheptan]	48,9	0,2	97,6%	99.6	31,4	0,2	75,5%	99.5	35,8	0,1	93,7%	99.9	37,1	0,0	100,0%	100	200,7	0,0	81,7%	100	
BrCC(Br)CBr [Beispiel 4, 1,2,3-Tribrompropan]	45,0	0,0	89,8%	100	34,8	0,0	93,3%	100	34,1	0,0	89,3%	100	40,5	0,6	89,8%	98.6	147,5	0,0	60,2%	100	
ClCC(Br)CBr (centres unmarked) [Beispiel 7, 1,2-Dibrom-3-chlorpropan]	42,5	0,0	84,8%	100	33,8	0,0	90,6%	100	33,8	0,0	88,5%	100	39,5	0,0	87,6%	100	202,6	0,0	82,8%	100	
CCCCC(Br)CC(Br)Br (centres unmarked) [Beispiel 10, 1,1,3-Tribromheptan]	46,3	0,3	92,4%		40,0	0,6	96,2%		36,2	0,1	94,7%		36,2	0,1	97,8%		180,1	0,0	73,6%		percent sterility at 10000 g/ha (diploidem Roggen Chulpan; Chulpan, period V, 1% aqueous emulsion, 10 kg/ha, read-out: Prozentsatz der Sterilität): 99.4%; pest or weed control at 1 %, 10000 g/ha [1, 7]: 98.4%; percent sterility at 6000 g/ha ([2]; Moskowskaya 35, period V, 1% aqueous emulsion, 6 kg/ha in 600 l water, read-out: Prozentsatz der Sterilität): 99.8%; percent sterility at 6000 g/ha ([3]; Kharkovskaya 55, period V, 1% aqueous emulsion, 6 kg/ha in 600 l water, read-out: Prozentsatz der Sterilität): 99.8%; percent sterility at 6000 g/ha ([4]; Mironovskoye 94, period V, 1% aqueous emulsion, 6 kg/ha in 600 l water, read-out: Prozentsatz der Sterilität): 100%
